Reference: patent US9364467B2 (Salix Pharmaceuticals, Ltd, priority 2012, dated 2016)
In brackets after ≈: the same amount, converted by molar mass. Where two headings read alike, the source gives them in different places.

What was measured:
[1] = test system: Staphylococcus spp. strains; experiment: In vitro activity (MIC) against Staphylococcus spp. strains; conditions: for MIC50 / MIC90 / MIC: Staphylococcus
S. epidermidis = experiment: In vitro activity (MIC) against S. epidermidis strains
[2] = target: T1, N-Formyl Peptide Receptor FPR1 (Homo sapiens, UniProt P21462); experiment: Radioligand binding assay, N-Formyl Peptide Receptor FPR1; conditions: CONC. 10 μM, hum
T1 sequence (P21462 1-350): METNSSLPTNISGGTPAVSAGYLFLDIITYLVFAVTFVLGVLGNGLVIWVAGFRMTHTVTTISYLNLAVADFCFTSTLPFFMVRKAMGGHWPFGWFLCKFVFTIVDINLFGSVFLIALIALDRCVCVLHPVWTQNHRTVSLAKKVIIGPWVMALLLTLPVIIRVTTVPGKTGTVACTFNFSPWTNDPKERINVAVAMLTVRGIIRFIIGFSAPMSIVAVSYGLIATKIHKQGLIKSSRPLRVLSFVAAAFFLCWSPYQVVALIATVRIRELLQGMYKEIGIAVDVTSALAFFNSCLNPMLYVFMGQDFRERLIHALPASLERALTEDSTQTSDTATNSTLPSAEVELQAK
Method: Methods employed in this study have been adapted from the scientific literature to maximize reliability and reproducibility. Reference standards were run as an integral part of each assay to ensure the validity of the results obtained. Assays were performed under conditions described in the accompanying “Methods” section below. The literature reference(s) for each assay are in the “Literature References” section.
Where presented, IC50 values were determined by a non-linear, least squares regression analysis using MathIQ™ (ID Business Solutions Ltd., UK). Where inhibition constants (KI) are presented, the KI values were calculated using the equation of Cheng and Prusoff (Cheng, Y., Prusoff, W. H., Biochem. Pharmacol. 22:3099-3108, 1973) using the observed IC50 of the tested compound, the concentration of radioligand employed in the assay, and the historical values for the KD of the ligand (obtained experimentally at Ricerca Biosciences, LLC). Where presented, the Hill coefficient (nH), defining the slope of the competitive binding curve, was calculated using MathIQ™. […] Where IC50, KI, and/or nH data are presented without Standard Error of the Mean (SEM), data are insufficient to be quantitative, and the values presented (KI, IC50, nH) should be interpreted with caution. […]

[3] = read-out: Mode (MIC), Staphylococcus spp. strains

SMILES: CO[C@H]1/C=C/O[C@@]2(C)Oc3c(C)c(O)c4c(O)c(c5c(nc6cc(C)ccn65)c4c3C2=O)NC(=O)/C(C)=C\C=C\[C@H](C)[C@H](O)[C@@H](C)[C@@H](O)[C@@H](C)[C@H](OC(C)=O)[C@@H]1C [Rifaximin, reference compound]
- MIC50 [1]: 0.25 µg/mL (≈ 0.318 µM)
- MIC90 [1]: 1 µg/mL (≈ 1.27 µM)
- Range (MIC) ([1]; Staphylococcus spp. strains): 0.03 to 1 µg/mL
- MIC [1, 3]: 0.5 µg/mL (≈ 0.636 µM)
- MIC ([1]; strain S. spp. 1102): 0.06 µg/mL (≈ 0.0763 µM)
- MIC ([1]; strain S. spp. 1187): 0.03 µg/mL (≈ 0.0382 µM)
- MIC ([1]; strain S. spp. 1195): 0.06 µg/mL (≈ 0.0763 µM)
- MIC ([1]; strain S. spp. 1256): 0.12 µg/mL (≈ 0.153 µM)
- MIC ([1]; strain S. spp. 1312): 0.25 µg/mL (≈ 0.318 µM)
- MIC ([1]; strain S. spp. 1689): 1 µg/mL (≈ 1.27 µM)
- MIC ([1]; strain S. spp. 1745): 0.06 µg/mL (≈ 0.0763 µM)
- MIC (S. epidermidis; Staphylococcus epidermidis): 0.06 µg/mL (≈ 0.0763 µM)
- MIC (S. epidermidis; strain S. epidermidis 354): 0.06 µg/mL (≈ 0.0763 µM)
- inhibition at 10 µM [2]: < 50%

SMILES: COC1/C=C/O[C@@]2(C)Oc3c(C)c(O)c4c(O)c(c5c(c4c3C2=O)NC2C=C(C)C=CN52)NC(=O)/C(C)=C\C=C\C(C)C(O)C(C)C(O)C(C)C(O)C1C (stereo partly drawn) [25-desacetyl rifaximin]
- MIC50 [1]: 2 µg/mL (≈ 2.68 µM)
- MIC90 [1]: 16 µg/mL (≈ 21.5 µM)
- MIC [1, 3]: 2 µg/mL (≈ 2.68 µM)
- MIC ([1]; strain S. spp. 1102): 1 µg/mL (≈ 1.34 µM)
- MIC ([1]; strain S. spp. 1187): 2 µg/mL (≈ 2.68 µM)
- MIC ([1]; strain S. spp. 1195): 0.12 µg/mL (≈ 0.161 µM)
- MIC ([1]; strain S. spp. 1256): 4 µg/mL (≈ 5.36 µM)
- MIC ([1]; strain S. spp. 1312): 4 µg/mL (≈ 5.36 µM)
- MIC ([1]; strain S. spp. 1689): 4 µg/mL (≈ 5.36 µM)
- MIC ([1]; strain S. spp. 1745): 0.25 µg/mL (≈ 0.335 µM)
- MIC (S. epidermidis; Staphylococcus epidermidis): 0.12 µg/mL (≈ 0.161 µM)
- MIC (S. epidermidis; strain S. epidermidis 354): 0.12 µg/mL (≈ 0.161 µM)
- inhibition at 10 µM [2]: > 50%
